Experimental data: ChEMBL document CHEMBL1201862, “PubChem BioAssay data set” (2004)
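Step 1: Grow cells in 96-well plates. Step 2: Expose to compound for 48 hours at 5 concentrations. Step 3: Interpolate endpoints linearly; if unreached, use highest concentration. GI50 = concentration required for 50% inhibition of growth.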 Activity calls are given as the source filed them. Cut-off read from the data, not from the text of the source: active = GI50 up to about 1.1 µM and inactive = higher.

Experiments:
Assay in all cases: NCI-60 cell line screen, 48 h
PC-3 = tested on: PC-3
OVCAR-5 = tested on: OVCAR-5
786-0 = tested on: 786-0
EKVX = tested on: EKVX
COLO 205 = tested on: COLO 205
HCT-15 = tested on: HCT-15
A549 = tested on: A549
MDA-MB-231 = tested on: MDA-MB-231
KM12 = tested on: KM12
SR = tested on: SR
RXF 393 = tested on: RXF 393
SNB-75 = tested on: SNB-75
CCRF-CEM = tested on: CCRF-CEM
NCI-H460 = tested on: NCI-H460
SF-295 = tested on: SF-295
SK-MEL-28 = tested on: SK-MEL-28
OVCAR-8 = tested on: OVCAR-8
OVCAR-4 = tested on: OVCAR-4
LOX IMVI = tested on: LOX IMVI
NCI/ADR-RES = tested on: NCI/ADR-RES

Row | SMILES | GI50 (PC-3) | GI50 (OVCAR-5) | GI50 (786-0) | GI50 (EKVX) | GI50 (COLO 205) | GI50 (HCT-15) [µM] | GI50 (A549) | GI50 (MDA-MB-231) | GI50 (KM12) | GI50 (SR) | GI50 (RXF 393) | GI50 (SNB-75) | GI50 (CCRF-CEM) | GI50 (NCI-H460) | GI50 (SF-295) | GI50 (SK-MEL-28) | GI50 (OVCAR-8) | GI50 (OVCAR-4) | GI50 (LOX IMVI) | GI50 (NCI/ADR-RES)
1 | CC(C)(C)C(=O)Nc1cccc(-c2ccc[nH]2)n1 | > 100 µM (inactive) | > 100 µM (inactive) | > 100 µM (inactive) | > 85.7 µM (inactive) | > 100 µM (inactive) | > 100 | > 100 µM (inactive) | > 65 µM (inactive) | > 100 µM (inactive) | 67.1 µM (inactive) | > 100 µM (inactive) | > 60.8 µM (inactive) | > 100 µM (inactive) | > 96.8 µM (inactive) | 99.8 µM (inactive) | > 100 µM (inactive) | > 100 µM (inactive) | > 55.6 µM (inactive) | > 100 µM (inactive) | > 100 µM (inactive)
2 | Cc1c2ccnc(C(=O)NCCN(C)C)c2cc2c3cc(O)ccc3n(C)c12 | 0.115 µM (active) | 0.76 µM (active) | 0.0542 µM (active) | 0.957 µM (active) | 0.268 µM (active) | 0.12 | 0.0173 µM (active) | 0.314 µM (active) | 0.678 µM (active) | < 0.0184 µM (active) | 0.29 µM (active) | 0.33 µM (active) | < 0.0145 µM (active) | < 0.01 µM (active) | 0.0671 µM (active) | 0.328 µM (active) | 0.1 µM (active) | 0.537 µM (active) | 0.11 µM (active) | 0.766 µM (active)
3 | NC1=NCN(C2OC(CO)C(O)C2O)C(=O)N1 (stereo not given) | 342 µM (inactive) | 183 µM (inactive) | 4.52 µM (inactive) | 509 µM (inactive) | 131 µM (inactive) | 4.5 | 18.5 µM (inactive) | 38.5 µM (inactive) | 14.1 µM (inactive) | 4.49 µM (inactive) | 8.99 µM (inactive) | 22.5 µM (inactive) | 7.19 µM (inactive) | 5.48 µM (inactive) | 43.4 µM (inactive) | 57.3 µM (inactive) | 415 µM (inactive) | 139 µM (inactive) | 2.23 µM (inactive) | 705 µM (inactive)
4 | O=C1c2scc(-c3ccccc3)c2-n2cccc21 | 11.7 µM (inactive) | 21 µM (inactive) | 13.9 µM (inactive) | 4.89 µM (inactive) | 17.8 µM (inactive) | 34.1 | 18.5 µM (inactive) | 14.8 µM (inactive) | 13.6 µM (inactive) | 13 µM (inactive) | 14 µM (inactive) | 3.46 µM (inactive) | 19.7 µM (inactive) | 31.1 µM (inactive) | 18.1 µM (inactive) | 15.2 µM (inactive) | 13.5 µM (inactive) | 75.9 µM (inactive) | 14.4 µM (inactive) | 17.5 µM (inactive)
5 | CCOC(=O)/C=C(/OCC)[C@@H]1C(C(=O)c2ccc(Cl)cc2)[C@@H]1/C(=C\C(=O)OCC)OCC (stereo not given in full) | 5.89 µM (inactive) | 30.6 µM (inactive) | > 33.7 µM (inactive) | 14.5 µM (inactive) | 6.68 µM (inactive) | > 33 | 10.9 µM (inactive) | 10.1 µM (inactive) | 6.87 µM (inactive) | 17.7 µM (inactive) | 14.3 µM (inactive) | 7.5 µM (inactive) | 5.69 µM (inactive) | 18.6 µM (inactive) | 7.98 µM (inactive) | 41.7 µM (inactive) | 6.56 µM (inactive) | 67.3 µM (inactive) | 24.3 µM (inactive) | 3.6 µM (inactive)
6 | C[N+]1(CCC(=O)c2ccccc2)CCC2CCC(C2)C1 (stereo not given) | > 100 µM (inactive) | > 100 µM (inactive) | > 100 µM (inactive) | > 100 µM (inactive) | > 100 µM (inactive) | > 100 | > 100 µM (inactive) | > 100 µM (inactive) | > 100 µM (inactive) | > 100 µM (inactive) | > 100 µM (inactive) | > 100 µM (inactive) | > 100 µM (inactive) | > 100 µM (inactive) | > 100 µM (inactive) | > 100 µM (inactive) | > 100 µM (inactive) | > 100 µM (inactive) | > 100 µM (inactive) | > 100 µM (inactive)
7 | COc1cccc([C@H]2C/C(=N\NC(=O)C(=O)N[C@@H](C)c3ccccc3)c3ccccc3N2)c1 | 0.0263 µM (active) | 16.8 µM (inactive) | 0.0374 µM (active) | 0.0927 µM (active) | 0.0167 µM (active) | < 0.01 | 6.15 µM (inactive) | 0.0923 µM (active) | < 0.01 µM (active) | > 10 µM (inactive) | 5.5 µM (inactive) | 8.53 µM (inactive) | 0.0188 µM (active) | > 10 µM (inactive) | < 0.01 µM (active) | 0.0673 µM (active) | 6.41 µM (inactive) | 7.48 µM (inactive) | 0.0721 µM (active) | 7.05 µM (inactive)
8 | CC(=O)Nc1ccc2c3c(cc(O)c2c1)N(C(=O)CCCC(=O)Nc1ccc2c4c(cc(O)c2c1)N(C(=O)OC(C)(C)C)CC4CCl)CC3CCl (stereo not given) | 1.27 µM (inactive) | 2.3 µM (inactive) | 1.23 µM (inactive) | 5.24 µM (inactive) | 1.22 µM (inactive) | > 50 | 9.4 µM (inactive) | 1.47 µM (inactive) | 2.26 µM (inactive) | 0.0221 µM (active) | 2.58 µM (inactive) | 1.99 µM (inactive) | 0.108 µM (active) | 1.48 µM (inactive) | 13.4 µM (inactive) | 1.91 µM (inactive) | 1.94 µM (inactive) | 1.44 µM (inactive) | 0.904 µM (active) | > 50 µM (inactive)
9 | O=C1NC(=S)N(c2cccc3ccccc23)C(=O)/C1=C/c1c[nH]c2ccccc12 | 2.36 µM (inactive) | 2.4 µM (inactive) | 1.71 µM (inactive) | 2.06 µM (inactive) | 1.84 µM (inactive) | 1.67 | 5.12 µM (inactive) | 2.16 µM (inactive) | 2.32 µM (inactive) | 1.41 µM (inactive) | 1.91 µM (inactive) | 2.43 µM (inactive) | 1.76 µM (inactive) | 2.36 µM (inactive) | 3.07 µM (inactive) | 2.26 µM (inactive) | 2.39 µM (inactive) | 2.44 µM (inactive) | 1.82 µM (inactive) | 3 µM (inactive)
10 | Cc1cc2nc3c(C#N)c4c(c(Nc5ccc(F)cc5)n3c2cc1C)CCC4 | > 100 µM (inactive) | > 100 µM (inactive) | > 100 µM (inactive) | > 100 µM (inactive) | > 100 µM (inactive) | > 100 | > 100 µM (inactive) | > 100 µM (inactive) | > 100 µM (inactive) | > 100 µM (inactive) | > 100 µM (inactive) | > 100 µM (inactive) | > 100 µM (inactive) | > 100 µM (inactive) | > 100 µM (inactive) | > 100 µM (inactive) | > 100 µM (inactive) | > 100 µM (inactive) | > 100 µM (inactive) | > 100 µM (inactive)
11 | O=[N+]([O-])c1ccc2c(/N=N/c3c(O)ccc4ccccc34)c(O)cc(S(=O)(=O)O)c2c1 | 6.98 µM (inactive) | 8.34 µM (inactive) | 11.7 µM (inactive) | > 50 µM (inactive) | 18.3 µM (inactive) | 4.62 | 15.4 µM (inactive) | 18 µM (inactive) | 24.2 µM (inactive) | 26.2 µM (inactive) | 14.8 µM (inactive) | 21.9 µM (inactive) | 0.869 µM (active) | 44.4 µM (inactive) | 13.3 µM (inactive) | 10.1 µM (inactive) | 5.28 µM (inactive) | 35.2 µM (inactive) | 17.4 µM (inactive) | 6.92 µM (inactive)
12 | COc1ccccc1CCN1CCN(CCCc2ccccc2)CC1 | > 100 µM (inactive) | > 100 µM (inactive) | 45.6 µM (inactive) | > 100 µM (inactive) | 28.5 µM (inactive) | 42.6 | 85.7 µM (inactive) | > 100 µM (inactive) | 62.7 µM (inactive) | 32.7 µM (inactive) | 59.8 µM (inactive) | > 100 µM (inactive) | > 100 µM (inactive) | 54.3 µM (inactive) | 52.5 µM (inactive) | > 100 µM (inactive) | > 100 µM (inactive) | 89.7 µM (inactive) | 64.6 µM (inactive) | > 100 µM (inactive)
13 | COc1ccc(C(C)NNC(=O)c2cc[n+]([BH2-]C#N)cc2)cc1OC (stereo not given) | > 100 µM (inactive) | > 100 µM (inactive) | > 100 µM (inactive) | > 100 µM (inactive) | > 100 µM (inactive) | > 100 | > 100 µM (inactive) | > 100 µM (inactive) | > 100 µM (inactive) | > 100 µM (inactive) | > 100 µM (inactive) | > 100 µM (inactive) | > 100 µM (inactive) | > 100 µM (inactive) | > 100 µM (inactive) | > 100 µM (inactive) | > 100 µM (inactive) | > 100 µM (inactive) | > 100 µM (inactive) | > 100 µM (inactive)
14 | COC(CC1(/C=C/O[Si](C(C)C)(C(C)C)C(C)C)C(=O)N(C)c2ccccc21)OC (stereo not given) | 49.3 µM (inactive) | > 100 µM (inactive) | 18.4 µM (inactive) | 46 µM (inactive) | 58.9 µM (inactive) | 40.9 | 45.2 µM (inactive) | > 100 µM (inactive) | 39.4 µM (inactive) | 31.6 µM (inactive) | 59.6 µM (inactive) | > 100 µM (inactive) | 64.7 µM (inactive) | 45.9 µM (inactive) | 28.6 µM (inactive) | > 100 µM (inactive) | 54.3 µM (inactive) | 34.5 µM (inactive) | 33.4 µM (inactive) | 22.9 µM (inactive)
